Test results as given in patent EP4480497A1, “BIO-CONJUGATES FOR ONCOLOGY” (priority 2023, dated 2024).

Experiments:
[1] = tested on: tumour xenograft LIXF HEP3B (hepatocellular carcinoma); experiment: Orthotopic hepatocellular carcinoma xenograft, anti-tumour efficacy (Example 7); assay type: in vivo, NMRI nude mice; details: seven to eight mice per group, each substance at its one regimen
Procedure: The experiment comprised a reference group (Group 1) dosed with phosphate buffered saline and four treatment groups (Groups 2 to 5). […] The daily dose was split, the daily dosing interval was 6 hours. Mice were either sacrificed individually when their general condition required sacrifice or at termination of the experiment. The group size at the start of dosing was seven to eight mice per group, bearing orthotopic growing LIXF HEP3B.

[2] = Tolerability (mortality, body weight, skin) in the LIXF HEP3B xenograft study (Example 7); assay type: in vivo, NMRI nude mice
Procedure: The experiment comprised a reference group (Group 1) dosed with phosphate buffered saline and four treatment groups (Groups 2 to 5). […] CROMOC62 was given subcutaneously every second week for 4 weeks at 32 (induction dosing on day 0) and 16 (day 14 and 28) mg/kg/d. Sorafenib was applied daily for 6 days in mono and combined therapy and additional 6 days (9-14) exclusively in monotherapy per oral at 200 mg/kg/d. The daily dose was split, the daily dosing interval was 6 hours. Mice were either sacrificed individually when their general condition required sacrifice or at termination of the experiment. The group size at the start of dosing was seven to eight mice per group, bearing orthotopic growing LIXF HEP3B. […] CROMOC62 was given at one dose levels (32 mg/kg on day 0 and 16 mg/kg/d on days 14 and 28) in monotherapy or in combination with sorafenib which was given at one dose level (200 mg/kg/d on days 0-5). The effect of sorafenib monotherapy was also assessed (200 mg/kg/d on day 0-5 and 9-14).

[3] = tested on: triple negative breast tumour cells MDA-MB231; experiment: ATPlite luminescence ATP assay in MDA-MB231 cells (Example 5); assay type: cell-based; details: MDA-MB231, ATP assay after a 72h treatment, Figure 5A
Procedure: Dose-response curves in triple negative breast tumour cells MDA-MB231 and IC50 values obtained from an ATP assay after a 72h treatment with CROMOC36, CROMOC36-DM1 and the unconjugated DM1 molecule is shown in Figure 5A. The x-axis indicates the drug concentration (nM) in log scale, and the y-axis indicates the % of cell viability as measured by the ATP levels in the treated cells relative to the DMSO control.
The cytotoxic effect of CROMOC-DM1 conjugates was evaluated on the MDA-MB-231 cell line by means of the ATPlite Luminescence ATP Detection Assay System. The cytotoxic effect of the different CROMOC conjugated with DM-1 was compared to that of non-conjugated CROMOCs. Cells treated only with the medium were used as control. Briefly, the cells were seeded in black 96-well plates at a density of 2000 cells/well. After 24 h, cells were treated with increasing concentrations of the conjugates (range 0.02 - 500 nM in CROMOC, n=11) for 72 hours. To quantify ATP production, cells were treated following the manufacturer's instructions, and luminescence was quantified by means of a Victor Nivo multi-plate reader (Perkin Elmer, Waltham, MA, USA). The percentage of cell viability was determined as (luminescencetreated cells/luminescencecontrol cells) × 100. IC50 values were calculated using GraphPad Prism 9.0 (San Diego, CA, USA) by a nonlinear regression model.

Structure (SMILES) | complete remissions (number of mice) [1] | partial remissions (number of mice) [1] | mortalities ([2]; LIXF HEP3B study, seven to eight mice per group, each substance at its one regimen) | maximum body weight loss ([2]; on day 16, sorafenib 12x200 mg/kg/d per oral) | IC50 [3]
CNC(=O)c1cc(Oc2ccc(NC(=O)Nc3ccc(Cl)c(C(F)(F)F)c3)cc2)ccn1 [sorafenib] | five | two | One out of eight | 2.5% | 
COc1cc2cc(c1Cl)N(C)C(=O)C[C@H](OC(=O)[C@H](C)N(C)C(=O)CCS)[C@]1(C)O[C@H]1[C@H](C)[C@@H]1C[C@@](O)(NC(=O)O1)[C@H](OC)/C=C/C=C(\C)C2 [DM1, DM1 Maytansinoid] |  |  |  |  | ~950 pM
